From US8445409B2, “Use of 5-benzyloxymethyl-1,2-isoxazoline derivatives as a herbicide” (Moghu Research Center Ltd., priority 2007, dated 2013)
Entries after “also recorded” stand apart in the source; their conditions may differ.

Tests used:
Cotton = assay: Upland pot test, pre-/post-emergence spray, visual rating; type: in vivo, cotton (GOSHI); conditions: for Visual measurement: Crops, Cotton: 2 weeks after spray, 0-10 scale (10=completely killed)
Text: (§1) To a rectangular plastic pot having a surface area of 300 cm^2, mixed soils including blend bed soil (Boonong, Horticultural Bed Soil No. 3) and sandy loam soil were filled (mixing ratio, 1:1). Seeds of the eight different types of weeds including gramineous weed such as barnyardgrass, large crabgrass, green foxtail, fall panicum, and broadleaf weed such as common cocklebur, velvetleaf, Indian joint-vetch, and morningglory were sown. To the other pot containing the same soil mixture, seeds of the five different types of crops including corn, soybean, cotton, wheat and rice were sown. Pots were kept in a greenhouse of which temperature was maintained at 25˜30° C. (day) or 15˜25° C. (night), and regularly watered.
(§2) After fourteen days and when the crops and the weeds reached their three-leaf stage, the other set of a crop pot and a weed pot were prepared by the same method as described above. Then, “test substance” was sprayed thereto. In this case, spray treatment to the plants after they have grown for two weeks corresponded to post-emergence treatment while spray treatment to the seeds right after the sowing corresponded to pre-emergence treatment. Spray was carried out by using a track sprayer (R&D Sprayer, USA) equipped with a Teejet 8002 nozzle (Spraying Systems Co., USA). Spray volume was adjusted to 300 L/ha. The spray solution was prepared by dissolving the “test substance” in acetone and adding the same volume of 0.2% (v/v) Tween 20 aqueous solution. Dosage of the test substance was 500, 250, 125, 62.5 or 31.3 g/ha. Two weeks after the spray of the test substance, efficacy and phytotoxic effect to the crops and the weeds were visually measured based on a 0 to 10 scale (0: no efficacy, 10: completely killed).

Annual bluegrass = assay: Herbicidal activity at different growth stages, fresh weight suppression; type: in vivo; conditions: for Suppression ratio relative to the biomass of the untreated group: Annual bluegrass 1 leaf / Suppression ratio relative to the biomass of the untreated group: Annual bluegrass 2 leaf / Suppression ratio relative to the biomass of the untreated group: Annual bluegrass 3 leaf / Suppression ratio relative to the biomass of the untreated group: Annual bluegrass 4 leaf / Suppression ratio relative to the biomass of the untreated group: Annual bluegrass PRE: fresh weight two weeks after treatment
Description: To a cup pot having a surface area of 100 cm^2 wherein mixed soils including blend bed soil (Boonong, Horticultural Bed Soil No. 3) and sandy loam soil were filled (mixing ratio, 1:1), seeds of large crabgrass and annual bluegrass were sown consecutively at an one week interval. The pots were moistened by sub-irrigation, and kept in a greenhouse maintained at 25˜30° C. (day) or 15˜25° C. (night). The said weeds were grown to various growth stages from pre-emergence to the four-leaf stage. […] Spray volume was adjusted to 2,000 L/ha. The method to spray of the test substance and prepare spray solutions were the same as described above. The reference herbicide was used after it was diluted with 0.2% (v/v) Tween 20 aqueous solution. The test was conducted in a randomized block design with three replicates. Two weeks after the treatment, plant parts remained above the pot soil surface were cut and the fresh weight was weighed. Results are given by a suppression ratio relative to the biomass that was obtained from the untreated group (see, Table 3).

Rice = assay: Upland pot test, pre-/post-emergence spray, visual rating; type: in vivo, rice (ORYSA); conditions: for Visual measurement: Crops, Rice: 2 weeks after spray, 0-10 scale (10=completely killed)
Text: as §1, §2

Indian joint-vetch = assay: as above; type: in vivo, Indian joint-vetch (AESIN); conditions: 2 weeks after spray, 0-10 scale (10=completely killed)
Text: as §1, §2

[1] = system: broadleaf weeds such as common cocklebur, Indian joint-vetch, velvetleaf, morningglory; assay: Upland pot test, broadleaf weeds as a group; type: in vivo
Text: as §1, §2

[2] = system: gramineous weeds such as barnyardgrass, green foxtail, large crabgrass and fall panicum; assay: Upland pot test, gramineous weeds as a group; type: in vivo
Text: as §1, §2

[3] = post-emergence foliar spray at three leaf stage, 31.2 g/ha
[4] = post-emergence foliar spray at three leaf stage, 62.5 g/ha
[5] = post-emergence foliar spray at three leaf stage, 125 g/ha
[6] = post-emergence foliar spray at three leaf stage, 250 g/ha
[7] = post-emergence foliar spray at three leaf stage, 500 g/ha
[8] = pre-emergence soil treatment, 31.2 g/ha
[9] = pre-emergence soil treatment, 62.5 g/ha
[10] = pre-emergence soil treatment, 125 g/ha
[11] = pre-emergence soil treatment, 250 g/ha
[12] = pre-emergence soil treatment, 500 g/ha
[13] = post-emergence treatment at three-leaf stage, FIG. 2

SMILES: Cc1ccsc1C1=NOC(C)(COCc2c(F)cccc2F)C1 (centres unmarked) [test substance, 5-(2,6-difluorobenzyl)oxymethyl-5-methyl-3-(4-methylthiophen-5-yl)-1,2-isoxazoline]
- Visual measurement: Crops, Cotton (Cotton; [3]): 0
- Visual measurement: Crops, Cotton (Cotton; [4]): 0
- Visual measurement: Crops, Cotton (Cotton; [5]): 0
- Visual measurement: Crops, Cotton (Cotton; [6]): 0
- Visual measurement: Crops, Cotton (Cotton; [7]): 0
- Safety to cotton (in words) (Cotton; post-emergence treatment): safe
- Visual measurement: Crops, Cotton (Cotton; [8]): 0
- Visual measurement: Crops, Cotton (Cotton; [9]): 0
- Visual measurement: Crops, Cotton (Cotton; [10]): 0
- Visual measurement: Crops, Cotton (Cotton; [11]): 0
- Visual measurement: Crops, Cotton (Cotton; [12]): 0
- Suppression ratio relative to the biomass of the untreated group: Annual bluegrass 1 leaf (Annual bluegrass; 1 kg/ha): 97%
- Suppression ratio relative to the biomass of the untreated group: Annual bluegrass 2 leaf (Annual bluegrass; 1 kg/ha): 93%
- Suppression ratio relative to the biomass of the untreated group: Annual bluegrass 3 leaf (Annual bluegrass; 1 kg/ha): 66%
- Suppression ratio relative to the biomass of the untreated group: Annual bluegrass 4 leaf (Annual bluegrass; 1 kg/ha): 55%
- Suppression ratio relative to the biomass of the untreated group: Annual bluegrass PRE (Annual bluegrass; 1 kg/ha): 100%
- Suppression ratio relative to the biomass of the untreated group: Annual bluegrass 1 leaf (Annual bluegrass; 2 kg/ha): 99%
- Suppression ratio relative to the biomass of the untreated group: Annual bluegrass 2 leaf (Annual bluegrass; 2 kg/ha): 95%
- Suppression ratio relative to the biomass of the untreated group: Annual bluegrass 3 leaf (Annual bluegrass; 2 kg/ha): 69%
- Suppression ratio relative to the biomass of the untreated group: Annual bluegrass 4 leaf (Annual bluegrass; 2 kg/ha): 60%
- Suppression ratio relative to the biomass of the untreated group: Annual bluegrass PRE (Annual bluegrass; 2 kg/ha): 100%
- Suppression ratio relative to the biomass of the untreated group: Annual bluegrass 1 leaf (Annual bluegrass; .12 kg/ha): 37%
- Suppression ratio relative to the biomass of the untreated group: Annual bluegrass 2 leaf (Annual bluegrass; .12 kg/ha): 35%
- Suppression ratio relative to the biomass of the untreated group: Annual bluegrass 3 leaf (Annual bluegrass; .12 kg/ha): 0%
- Suppression ratio relative to the biomass of the untreated group: Annual bluegrass 4 leaf (Annual bluegrass; .12 kg/ha): 0%
- Suppression ratio relative to the biomass of the untreated group: Annual bluegrass PRE (Annual bluegrass; .12 kg/ha): 95%
- Suppression ratio relative to the biomass of the untreated group: Annual bluegrass 1 leaf (Annual bluegrass; .25 kg/ha): 95%
- Suppression ratio relative to the biomass of the untreated group: Annual bluegrass 2 leaf (Annual bluegrass; .25 kg/ha): 82%
- Suppression ratio relative to the biomass of the untreated group: Annual bluegrass 3 leaf (Annual bluegrass; .25 kg/ha): 18%
- Suppression ratio relative to the biomass of the untreated group: Annual bluegrass 4 leaf (Annual bluegrass; .25 kg/ha): 2%
- Suppression ratio relative to the biomass of the untreated group: Annual bluegrass PRE (Annual bluegrass; .25 kg/ha): 100%
- Suppression ratio relative to the biomass of the untreated group: Annual bluegrass 1 leaf (Annual bluegrass; .5 kg/ha): 96%
- Suppression ratio relative to the biomass of the untreated group: Annual bluegrass 2 leaf (Annual bluegrass; .5 kg/ha): 90%
- Suppression ratio relative to the biomass of the untreated group: Annual bluegrass 3 leaf (Annual bluegrass; .5 kg/ha): 61%
- Suppression ratio relative to the biomass of the untreated group: Annual bluegrass 4 leaf (Annual bluegrass; .5 kg/ha): 37%
- Suppression ratio relative to the biomass of the untreated group: Annual bluegrass PRE (Annual bluegrass; .5 kg/ha): 100%
- Suppression of annual bluegrass (Annual bluegrass; PRE to 2-leaf stage, 0.5 kg/ha or above): ≥ 90%
- Control of annual bluegrass (in words) (Annual bluegrass; over three-leaf stage): suppressed but were not completely controlled
- Visual measurement: Crops, Rice (Rice; [3]): 0
- Visual measurement: Crops, Rice (Rice; [4]): 0
- Visual measurement: Crops, Rice (Rice; [5]): 0
- Visual measurement: Crops, Rice (Rice; [6]): 0
- Visual measurement: Crops, Rice (Rice; [7]): 0
- Safety to rice (in words) (Rice; post-emergence treatment): safe
- Visual measurement: Crops, Rice (Rice; [8]): 0
- Visual measurement: Crops, Rice (Rice; [9]): 0
- Visual measurement: Crops, Rice (Rice; [10]): 0
- Visual measurement: Crops, Rice (Rice; [11]): 0
- Visual measurement: Crops, Rice (Rice; [12]): 0
- Visual measurement: Broadleaf weed, Indian joint-vetch (Indian joint-vetch; [3]): 0
- Visual measurement: Broadleaf weed, Indian joint-vetch (Indian joint-vetch; [4]): 1
- Visual measurement: Broadleaf weed, Indian joint-vetch (Indian joint-vetch; [5]): 2
- Visual measurement: Broadleaf weed, Indian joint-vetch (Indian joint-vetch; [6]): 3
- Visual measurement: Broadleaf weed, Indian joint-vetch (Indian joint-vetch; [7]): 4
- Visual measurement: Broadleaf weed, Indian joint-vetch (Indian joint-vetch; [8]): 0
- Visual measurement: Broadleaf weed, Indian joint-vetch (Indian joint-vetch; [9]): 0
- Visual measurement: Broadleaf weed, Indian joint-vetch (Indian joint-vetch; [10]): 0
- Visual measurement: Broadleaf weed, Indian joint-vetch (Indian joint-vetch; [11]): 0
- Visual measurement: Broadleaf weed, Indian joint-vetch (Indian joint-vetch; [12]): 0
- Control of broadleaf weeds (in words) ([1]; post-emergence application, 500 g/ha): well controlled
- Control of broad-leaf weeds (in words) [1, 13]: somewhat controlled showing a mild suppression effect
- Effect on broadleaf weeds (in words) ([1]; pre-emergence treatment, FIG. 1): almost no effect; also recorded: not affected
- Control of gramineous weeds (in words) [2, 13]: well controlled
- Control of gramineous weeds (in words) ([2]; post-emergence treatment, 500 g/ha): most of the gramineous weeds were controlled
- Control of gramineous weeds (in words) ([2]; pre-emergence treatment, 125 g/ha or more, FIG. 1): remarkable effect of controlling all of the gramineous weeds; also recorded: effectively controlled
